The source of these data is US12350403B2, “Methods of making therapeutic polymeric material” (priority 2015, dated 2025).

In brackets after ≈: the same amount, converted by molar mass.

The conditions of data set [1]: cited from earlier work.
Data set [2] concerns Xen 29. Briefly: Minimum inhibitory concentration against Xen 29. Type of data set: cell-based, S. aureus. The following applies: Staphylococcus aureus, 29, read-out: Minimum inhibitory concentration of rifampin against Xen 29.
For data set [3] the following is noted: value used for minimum release rate; cited from earlier work.
Data set [4] is described as follows: UV-Vis spectra of vancomycin eluted from unirradiated and irradiated blend. Conditions: blended in the polymeric material, with and without terminal irradiation. Type of data set: physicochemical. As to the method: Vancomycin HCl-blended UHMWPE was prepared with a concentration of 6 wt % vancomycin as described in Example 3. Consolidation was performed at 170° C. for 10 min at 20 MPa. The platens were then cooled down with air down to approximately 162° C. and then cooled down with water starting at approximately 156° C. down to about room temperature to obtain an approximately 3 mm-thick puck (approximately 10.5 mm diameter). Consolidated vancomycin-blended samples (VPE) were then either used as is or gamma irradiated at 100 kGy. UHMWPE without additives was used as control. In vitro elution of samples in all three groups was conducted in phosphate buffered saline (PBS) as described in Example 3. After no detectable vancomycin could be measured through UV-Vis, the presence of vancomycin grafted onto the surface of the polymer was determined by labeling with an anti-vancomycin antibody.

For data set [5] the following is noted: human hip, assumed; cited from earlier work.
Data set [6] has as its system Xen 29. The following applies: cited from earlier work.

On to `Cc1nnc(SCC2=C(C(=O)O)N3C(=O)[C@@H](NC(=O)Cn4cnnn4)[C@H]3SC2)s1` [cefazolin], for which the “share of intravenous antibiotic that penetrates bone” value (“share” below) in data set [1] is recorded as 7-15%.
For `CO[C@H]1/C=C/O[C@@]2(C)Oc3c(C)c(O)c4c(O)c(c(/C=N/N5CCN(C)CC5)c(O)c4c3C2=O)NC(=O)/C(C)=C\C=C\[C@H](C)[C@H](O)[C@@H](C)[C@@H](O)[C@@H](C)[C@H](OC(C)=O)[C@@H]1C` [rifampin], the MIC with Xen 29 [2] came to 0.01 µg/mL (≈ 0.0122 µM). Also, in data set [3], the minimum inhibitory concentration is 1 µg/mL (≈ 1.22 µM).
Consider `CO/N=C(\C(=O)N[C@@H]1C(=O)N2C(C(=O)O)=C(CSc3nc(=O)c(=O)[nH]n3C)CS[C@H]12)c1csc(N)n1` [ceftriaxone], for which the “share” value in data set [1] is 5-19%.
As to `CN[C@H](CC(C)C)C(=O)N[C@H]1C(=O)N[C@@H](CC(N)=O)C(=O)N[C@H]2C(=O)N[C@H]3C(=O)N[C@H](C(=O)N[C@H](C(=O)O)c4cc(O)cc(O)c4-c4cc3ccc4O)[C@H](O)c3ccc(c(Cl)c3)Oc3cc2cc(c3O[C@@H]2O[C@H](CO)[C@@H](O)[C@H](O)[C@H]2O[C@H]2C[C@](C)(N)[C@H](O)[C@H](C)O2)Oc2ccc(cc2Cl)[C@H]1O` [vancomycin], in data set [4], the “effect of irradiation on vancomycin (UV absorbance of eluted vancomycin)” value is given as “not affected by irradiation”. In addition, the “share” value in data set [1] is listed as 5-20%. Further, the minimum inhibitory concentration in data set [3] is 2 µg/mL (≈ 1.38 µM). The “approximate clearance half-life from the joint space” value in data set [5] was around 3.5 h. Moreover, in the data set on Xen 29 [6], the “Minimum inhibitory concentration of vancomycin against Xen 29” value was 1 µg/mL.
